Legend:
[1] = molecular target: T1, E1p/E2p-PSBD complex (pyruvate dehydrogenase E1 subunit with E2p peripheral subunit binding domain) (Geobacillus stearothermophilus, UniProt P21873+P21874); assay: X-ray crystal structure, […] A
T1 construct: gene pdhA; alpha2beta2 heterotetramer with one E2p PSBD; recombinant in E. coli TG1 recO (plasmids pKBstE1a, pKBstE1b); he-3-deazaThDP crystals grown with E2p di-domain (lipoyl domain-linker-PSBD); with Dihydrolipoyllysine-residue acetyltransferase component of pyruvate dehydrogenase complex

[2] = molecular target: T2, E1p/E2p-PSBD complex (pyruvate dehydrogenase E1 subunit with E2p peripheral subunit binding domain) (Geobacillus stearothermophilus, UniProt P21873+P21874, P21873:I207A); assay: X-ray crystal structure, […] A; settings: 5 mM 3-deazaThDP; crystals at pH 5.0; ThDP site
T2 construct: gene pdhA; alpha2beta2 heterotetramer with one E2p PSBD; recombinant in E. coli TG1 recO (plasmids pKBstE1a, pKBstE1b); he-3-deazaThDP crystals grown with E2p di-domain (lipoyl domain-linker-PSBD); with Dihydrolipoyllysine-residue acetyltransferase component of pyruvate dehydrogenase complex

SMILES: Cc1ncc(Cc2csc(CCOP(=O)(O)OP(=O)(O)O)c2C)c(N)n1 [3-deazaThDP]
- X-ray crystal structure, 2.3 A ([1]; Mg2+, pyruvate soaked in, ThDP site): we have solved the structure of the E1p/E2p-PSBD complex with bound 3-deazaThDP and pyruvate
- X-ray crystal structure, 2.35 A [2]: crystal structure of the complex of 3-deazaThDP with the G. stearothermophilus E1p I206Aα mutant

SMILES: CC(=O)C(=O)O [pyruvate]
- X-ray crystal structure, 2.3 A ([1]; 10 mM pyruvate soak 1 week into 3-deazaThDP crystals, density in two of four sites, orientation not definitive): density in the active-site pocket that is likely to be due to pyruvate binding
